Laboratory results as given in ChEMBL document CHEMBL6127020, “Discovery of aminopiperidine based potent & novel topoisomerase inhibitor with broad spectrum anti-bacterial activity” (Bioorg Med Chem Lett, 2024).
In brackets after ≈: the same amount, converted by molar mass. One block for each molecule: values may come before it.

Tests used:
Staphylococcus aureus [1] = experiment: Antibacterial activity against Staphylococcus aureus ATCC 29213 assessed as inhibition of bacterial growth; format: functional
Escherichia coli [2] = experiment: Antibacterial activity against Escherichia coli ATCC 25922 assessed as inhibition of bacterial growth; format: functional
Staphylococcus aureus [3] = experiment: Antibacterial activity against methicillin resistant Staphylococcus aureus assessed as inhibition of bacterial growth; format: functional
Acinetobacter baumannii = experiment: Antibacterial activity against Acinetobacter baumannii assessed as inhibition of bacterial growth; format: functional
[4] = Cmax in C57 mouse at 3 mg/kg,po administration; format: ADME, organism-based; details: in vivo
[5] = Clearance in C57 mouse at 1 mg/kg,iv administration; format: ADME, organism-based; details: in vivo
Enterococcus faecalis [6] = experiment: Antibacterial activity against Enterococcus faecalis assessed as inhibition of bacterial growth; format: functional
Cytochrome P450 3A4 = Cytochrome P450 3A4 (Homo sapiens, UniProt P08684); experiment: Inhibition of CYP3A4 (unknown origin) at 10 uM; format: ADME
Streptococcus pneumoniae = experiment: Antibacterial activity against Streptococcus pneumoniae assessed as inhibition of bacterial growth; format: functional
[7] = Aqueous solubility of compound; format: physicochemical; details: aqueous medium; read-out: solubility
DNA gyrase = DNA gyrase (Staphylococcus aureus, UniProt P0A0K8+P20831); experiment: Inhibition of Staphylococcus aureus DNA gyrase; format: protein-complex assay
Haemophilus influenzae = experiment: Antibacterial activity against Haemophilus influenzae assessed as inhibition of bacterial growth; format: functional
Cytochrome P450 2C8 = biological target: T1, Cytochrome P450 2C8 (Homo sapiens, UniProt P10632); experiment: Inhibition of CYP2C8 (unknown origin) at 10 uM; format: ADME
T1 sequence (P10632 whole entry): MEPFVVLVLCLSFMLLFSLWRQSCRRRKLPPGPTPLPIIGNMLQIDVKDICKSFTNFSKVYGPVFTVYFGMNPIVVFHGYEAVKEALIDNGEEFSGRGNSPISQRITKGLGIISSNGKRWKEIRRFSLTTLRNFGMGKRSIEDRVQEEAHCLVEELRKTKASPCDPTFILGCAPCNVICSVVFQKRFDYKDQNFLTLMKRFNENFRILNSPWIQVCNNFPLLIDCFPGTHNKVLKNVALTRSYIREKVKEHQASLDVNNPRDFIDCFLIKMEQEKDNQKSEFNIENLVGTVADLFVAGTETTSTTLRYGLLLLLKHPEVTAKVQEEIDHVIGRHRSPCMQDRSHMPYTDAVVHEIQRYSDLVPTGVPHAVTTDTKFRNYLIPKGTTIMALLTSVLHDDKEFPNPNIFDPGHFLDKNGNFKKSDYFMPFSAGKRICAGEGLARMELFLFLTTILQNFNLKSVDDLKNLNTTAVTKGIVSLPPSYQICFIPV

Streptococcus pyogenes = experiment: Antibacterial activity against Streptococcus pyogenes assessed as inhibition of bacterial growth; format: functional
[8] = AUC (0 to t) in C57 mouse at 1 mg/kg,iv administration; format: ADME, organism-based; details: in vivo
[9] = MRT in C57 mouse at 1 mg/kg,iv administration; format: ADME, organism-based; details: in vivo
[10] = Bioavailability in C57 mouse at 1 mg/kg,iv administration; format: ADME, organism-based; details: in vivo
[11] = Solubility of compound in PBS; format: physicochemical; details: PBS; read-out: solubility
[12] = C0 in C57 mouse at 1 mg/kg,iv administration; format: ADME, organism-based; details: in vivo
Escherichia coli [13] = experiment: Antibacterial activity against Escherichia coli assessed as inhibition of bacterial growth; format: functional
Helicobacter pylori = experiment: Antibacterial activity against Helicobacter pylori assessed as inhibition of bacterial growth; format: functional
Cytochrome P450 1A2 = biological target: T2, Cytochrome P450 1A2 (Homo sapiens, UniProt P05177); experiment: Inhibition of CYP1A2 (unknown origin) at 10 uM; format: ADME
T2 sequence (P05177 whole entry): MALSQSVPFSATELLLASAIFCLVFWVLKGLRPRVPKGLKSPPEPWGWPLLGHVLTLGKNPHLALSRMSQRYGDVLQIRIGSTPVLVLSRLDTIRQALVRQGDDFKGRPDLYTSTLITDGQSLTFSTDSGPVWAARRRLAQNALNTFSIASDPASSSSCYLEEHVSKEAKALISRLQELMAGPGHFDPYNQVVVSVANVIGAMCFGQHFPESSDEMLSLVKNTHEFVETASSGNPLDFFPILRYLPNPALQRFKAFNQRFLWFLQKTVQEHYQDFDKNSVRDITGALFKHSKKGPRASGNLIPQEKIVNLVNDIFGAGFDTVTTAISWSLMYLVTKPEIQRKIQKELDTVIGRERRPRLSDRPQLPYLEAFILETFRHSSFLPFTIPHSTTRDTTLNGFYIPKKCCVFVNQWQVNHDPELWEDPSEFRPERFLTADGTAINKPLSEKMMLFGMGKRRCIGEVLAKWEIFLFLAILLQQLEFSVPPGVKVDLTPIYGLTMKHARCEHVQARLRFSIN

Cytochrome P450 2C19 = Cytochrome P450 2C19 (Homo sapiens, UniProt P33261); experiment: Inhibition of CYP2C19 (unknown origin) at 10 uM; format: ADME
Pseudomonas aeruginosa = experiment: Antibacterial activity against Pseudomonas aeruginosa assessed as inhibition of bacterial growth; format: functional
Staphylococcus aureus [14] = experiment: Antibacterial activity against Staphylococcus aureus assessed as inhibition of bacterial growth; format: functional
[15] = Volume of distribution at steady state in C57 mouse at 1 mg/kg,iv administration; format: ADME, organism-based; details: in vivo, read-out: Vdss
[16] = Tmax in C57 mouse at 3 mg/kg,po administration; format: ADME, organism-based; details: in vivo
Salmonella typhimurium = experiment: Antibacterial activity against Salmonella typhimurium assessed as inhibition of bacterial growth; format: functional, Salmonella enterica subsp. enterica serovar Typhimurium
Cytochrome P450 2D6 = Cytochrome P450 2D6 (Homo sapiens, UniProt P10635); experiment: Inhibition of CYP2D6 (unknown origin) at 10 uM; format: ADME
[17] = Half life in C57 mouse at 1 mg/kg,iv administration; format: ADME, organism-based; details: in vivo
Topoisomerase IV = Topoisomerase IV (Staphylococcus aureus, UniProt P0C1S7+P0C1U9); experiment: Inhibition of Staphylococcus aureus DNA topoisomerase 4; format: protein-complex assay
[18] = AUC (0 to t) in C57 mouse at 3 mg/kg,po administration; format: ADME, organism-based; details: in vivo
Shigella flexneri = experiment: Antibacterial activity against Shigella flexneri assessed as inhibition of bacterial growth; format: functional
Salmonella enterica = experiment: Antibacterial activity against Salmonella enterica assessed as inhibition of bacterial growth; format: functional
Enterococcus faecalis [19] = experiment: Antibacterial activity against vancomycin-resistant Enterococcus faecalis assessed as inhibition of bacterial growth; format: functional
Enterococcus faecium = experiment: Antibacterial activity against Enterococcus faecium assessed as inhibition of bacterial growth; format: functional
Klebsiella pneumoniae = experiment: Antibacterial activity against Klebsiella pneumoniae assessed as inhibition of bacterial growth; format: functional
[20] = Plasma protein binding in human; format: ADME, cell-free; details: read-out: PPB (converted)

Chain of Cytochrome P450 3A4 (P08684 whole entry): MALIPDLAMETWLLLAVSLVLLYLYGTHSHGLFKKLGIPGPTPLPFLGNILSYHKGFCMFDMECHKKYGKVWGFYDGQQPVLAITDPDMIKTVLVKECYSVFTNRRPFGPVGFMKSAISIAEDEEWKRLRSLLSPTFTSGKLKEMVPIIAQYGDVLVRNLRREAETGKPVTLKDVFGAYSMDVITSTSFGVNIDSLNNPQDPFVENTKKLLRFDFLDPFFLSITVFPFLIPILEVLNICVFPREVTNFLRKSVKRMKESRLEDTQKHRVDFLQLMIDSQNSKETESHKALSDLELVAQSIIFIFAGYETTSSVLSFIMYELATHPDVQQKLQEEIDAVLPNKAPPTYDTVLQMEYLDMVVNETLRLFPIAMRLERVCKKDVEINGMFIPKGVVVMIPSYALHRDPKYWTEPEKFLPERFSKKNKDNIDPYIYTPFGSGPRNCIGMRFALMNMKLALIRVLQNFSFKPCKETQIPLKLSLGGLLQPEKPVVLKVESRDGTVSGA
Chain of Cytochrome P450 2C19 (P33261 whole entry): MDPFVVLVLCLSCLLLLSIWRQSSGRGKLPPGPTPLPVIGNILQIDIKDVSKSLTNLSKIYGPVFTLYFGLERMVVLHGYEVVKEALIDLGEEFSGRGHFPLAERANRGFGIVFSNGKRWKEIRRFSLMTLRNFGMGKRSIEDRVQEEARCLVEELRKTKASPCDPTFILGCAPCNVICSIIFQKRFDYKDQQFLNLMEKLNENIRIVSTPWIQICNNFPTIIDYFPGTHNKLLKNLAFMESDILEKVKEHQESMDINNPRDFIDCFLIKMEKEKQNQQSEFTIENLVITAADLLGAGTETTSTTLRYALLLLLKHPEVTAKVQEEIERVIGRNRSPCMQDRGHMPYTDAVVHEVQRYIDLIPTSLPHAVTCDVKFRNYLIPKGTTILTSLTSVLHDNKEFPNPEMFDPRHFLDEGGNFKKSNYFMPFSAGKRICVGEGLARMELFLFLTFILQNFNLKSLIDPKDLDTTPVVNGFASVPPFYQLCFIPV
Chain of Cytochrome P450 2D6 (P10635 whole entry): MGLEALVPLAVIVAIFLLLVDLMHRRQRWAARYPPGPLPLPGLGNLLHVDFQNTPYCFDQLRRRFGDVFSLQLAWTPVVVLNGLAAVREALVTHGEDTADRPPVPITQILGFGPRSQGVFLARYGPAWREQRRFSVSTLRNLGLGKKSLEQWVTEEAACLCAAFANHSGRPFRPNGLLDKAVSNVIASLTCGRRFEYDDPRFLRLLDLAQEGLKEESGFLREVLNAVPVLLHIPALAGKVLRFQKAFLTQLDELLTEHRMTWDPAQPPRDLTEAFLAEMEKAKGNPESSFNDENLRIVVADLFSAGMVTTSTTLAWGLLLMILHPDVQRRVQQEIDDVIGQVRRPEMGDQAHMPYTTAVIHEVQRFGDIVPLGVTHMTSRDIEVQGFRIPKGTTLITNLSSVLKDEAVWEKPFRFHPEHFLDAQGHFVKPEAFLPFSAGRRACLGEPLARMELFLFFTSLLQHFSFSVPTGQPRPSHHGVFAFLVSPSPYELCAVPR

SMILES: N#Cc1ccc2ccc(=O)n(CCN3CCC(NCc4ccc5c(c4)OCC(C(=O)O)O5)CC3)c2c1 (stereo not given)
MIC (Staphylococcus aureus [1]): > 16 µg/mL | MIC (Escherichia coli [2]): > 16 µg/mL

SMILES: N#Cc1ccc2ccc(=O)n(CCN3CCC(NCc4ccc5c(c4)NC(=O)CS5(=O)=O)CC3)c2c1
MIC (Staphylococcus aureus [1]): > 16 µg/mL | MIC (Escherichia coli [2]): > 16 µg/mL

SMILES: N#Cc1ccc2ccc(=O)n(CCN3CCC(NCc4ccc5c(c4)CCCC5)CC3)c2c1
MIC (Staphylococcus aureus [1]): < 0.125 µg/mL | MIC (Escherichia coli [2]): 1 µg/mL (≈ 2.27 µM)

SMILES: O=S1(=O)c2ccccc2N(CCN2CCC(NCc3cc4c(cn3)OCCC4)CC2)c2ccccc21
MIC (Staphylococcus aureus [1]): > 16 µg/mL | MIC (Escherichia coli [2]): > 16 µg/mL

SMILES: N#Cc1ccc2ccc(=O)n(CCN3CCC(NCc4ccc5c(c4)NC(=O)CS5)CC3)c2c1
MIC (Staphylococcus aureus [3]): 0.03 µg/mL (≈ 0.0633 µM) | MIC90 (Staphylococcus aureus [3]): 0.125 µg/mL (≈ 0.264 µM) | MIC (Acinetobacter baumannii): 0.125 µg/mL (≈ 0.264 µM) | MIC90 (Acinetobacter baumannii): 2 µg/mL (≈ 4.22 µM) | Cmax [4]: 22 ng/mL | clearance [5]: 80 mL/min/kg | MIC (Enterococcus faecalis [6]): 0.5 µg/mL (≈ 1.06 µM) | MIC90 (Enterococcus faecalis [6]): 0.5 µg/mL (≈ 1.06 µM) | inhibition (INH) (Cytochrome P450 3A4): Not Active | MIC (Streptococcus pneumoniae): 0.125 µg/mL (≈ 0.264 µM) | MIC90 (Streptococcus pneumoniae): 1 µg/mL (≈ 2.11 µM) | solubility [7]: 719 µg/mL (≈ 1520 µM) | IC50 (DNA gyrase): 3.2 nM | MIC (Haemophilus influenzae): 2 µg/mL (≈ 4.22 µM) | inhibition (INH) (Cytochrome P450 2C8): Not Active | MIC (Staphylococcus aureus [1]): < 0.125 µg/mL | MIC (Streptococcus pyogenes): 0.15 µg/mL (≈ 0.317 µM) | MIC90 (Streptococcus pyogenes): 0.25 µg/mL (≈ 0.528 µM) | AUC(0-t) [8]: 206 ng·h/mL | MRT [9]: 3 h | bioavailability [10]: 18% | solubility [11]: 611 µg/mL (≈ 1290 µM) | C0 [12]: 1210 ng/mL | MIC (Escherichia coli [13]): 0.125 µg/mL (≈ 0.264 µM) | MIC90 (Escherichia coli [13]): 2 µg/mL (≈ 4.22 µM) | MIC (Helicobacter pylori): < 0.06 µg/mL | inhibition (INH) (Cytochrome P450 1A2): Not Active | inhibition (INH) (Cytochrome P450 2C19): Not Active | MIC (Pseudomonas aeruginosa): 0.125 µg/mL (≈ 0.264 µM) | MIC90 (Pseudomonas aeruginosa): 8 µg/mL (≈ 16.9 µM) | MIC (Escherichia coli [2]): < 0.125 µg/mL | MIC (Staphylococcus aureus [14]): 0.016 µg/mL (≈ 0.0338 µM) | MIC90 (Staphylococcus aureus [14]): 0.125 µg/mL (≈ 0.264 µM) | Vd [15]: 14 L/kg | Tmax [16]: 3 h | MIC (Salmonella typhimurium): 2 µg/mL (≈ 4.22 µM) | inhibition (INH) (Cytochrome P450 2D6): Not Active | half-life [17]: 2.5 h | IC50 (Topoisomerase IV): 300 nM | AUC(0-t) [18]: 110 ng·h/mL | MIC (Shigella flexneri): 0.25 µg/mL (≈ 0.528 µM) | MIC (Salmonella enterica): 1 µg/mL (≈ 2.11 µM) | MIC (Enterococcus faecalis [19]): 0.25 µg/mL (≈ 0.528 µM) | MIC90 (Enterococcus faecalis [19]): 4 µg/mL (≈ 8.45 µM) | MIC (Enterococcus faecium): 1 µg/mL (≈ 2.11 µM) | MIC90 (Enterococcus faecium): 1 µg/mL (≈ 2.11 µM) | MIC90 (Klebsiella pneumoniae): 16 µg/mL (≈ 33.8 µM) | fraction unbound [20]: 0.21

SMILES: N#Cc1ccc2ccc(=O)n(CCN3CCC(NCc4ccc5c(c4)OCCO5)CC3)c2c1
inhibition (INH) (Cytochrome P450 3A4): Not Active | IC50 (DNA gyrase): 44 nM | inhibition (INH) (Cytochrome P450 2C8): Not Active | MIC (Staphylococcus aureus [1]): < 0.125 µg/mL | inhibition (INH) (Cytochrome P450 1A2): Not Active | inhibition (INH) (Cytochrome P450 2C19): Not Active | inhibition (INH) (Cytochrome P450 2D6): Not Active | IC50 (Topoisomerase IV): 900 nM

The remaining lines, values ahead:

MIC (Staphylococcus aureus [1]): 2 µg/mL (≈ 4.9 µM) | MIC (Escherichia coli [2]): 8 µg/mL (≈ 19.6 µM)
SMILES: O=c1ccn2nccc2n1CCN1CCC(NCc2cc3c(cn2)OCCC3)CC1

MIC (Staphylococcus aureus [1]): 2 µg/mL (≈ 4.26 µM) | MIC (Escherichia coli [2]): > 16 µg/mL
SMILES: O=c1c2ccccc2c2ncccc2n1CCN1CCC(NCc2cc3c(cn2)OCCC3)CC1

MIC (Staphylococcus aureus [1]): > 16 µg/mL | MIC (Escherichia coli [2]): > 16 µg/mL
SMILES: c1ccc2c(c1)c1ccccc1n2CCN1CCC(NCc2cc3c(cn2)OCCC3)CC1

MIC (Staphylococcus aureus [1]): 1 µg/mL (≈ 2.13 µM) | MIC (Escherichia coli [2]): > 16 µg/mL
SMILES: O=c1c2ccccc2c2ccccc2n1CCN1CCC(NCc2cc3c(cn2)OCCC3)CC1

MIC (Staphylococcus aureus [1]): 2 µg/mL (≈ 4.61 µM) | MIC (Escherichia coli [2]): 2 µg/mL (≈ 4.61 µM)
SMILES: N#Cc1cnn2ccc(=O)n(CCN3CCC(NCc4cc5c(cn4)OCCC5)CC3)c12

MIC (Staphylococcus aureus [1]): 16 µg/mL (≈ 33.9 µM) | MIC (Escherichia coli [2]): > 16 µg/mL
SMILES: c1ccc2c(c1)Sc1ccccc1N2CCN1CCC(NCc2cc3c(cn2)OCCC3)CC1

MIC (Staphylococcus aureus [1]): < 0.125 µg/mL | MIC (Escherichia coli [2]): 0.25 µg/mL (≈ 0.565 µM)
SMILES: N#Cc1ccc2ccc(=O)n(CCN3CCC(NCc4ccc5c(c4)CCCO5)CC3)c2c1

MIC (Staphylococcus aureus [1]): 0.125 µg/mL (≈ 0.257 µM) | MIC (Escherichia coli [2]): 2 µg/mL (≈ 4.11 µM)
SMILES: O=c1ccc2ccc(C(F)(F)F)cc2n1CCN1CCC(NCc2cc3c(cn2)OCCC3)CC1
